Results reported in patent publication US8569292B2, “Cyclic inhibitors of 11β-hydroxysteroid dehydrogenase 1” (Vitae Pharmaceuticals, Inc., priority 2008, dated 2013).

What was measured:
[1] = Biological Test Example 5: fraction unbound in human plasma (equilibrium dialysis); type: in vitro ADME
Experimental: Plasma protein binding of compounds was determined with Equilibrium Dialysis of spiked plasma against compound free dextrane buffer using a dialysis membrane with mass cutoff of 5000 Da. Compound concentrations in plasma and buffer after incubation were measured using HPLC/Mass spectrometry.

[2] = target: CYP2C19 (Homo sapiens, UniProt P33261); experiment: Biological Test Example 8: CYP2C19 inhibition (diazepam N-demethylation); type: in vitro ADME
CYP2C19, sequence (P33261 whole entry): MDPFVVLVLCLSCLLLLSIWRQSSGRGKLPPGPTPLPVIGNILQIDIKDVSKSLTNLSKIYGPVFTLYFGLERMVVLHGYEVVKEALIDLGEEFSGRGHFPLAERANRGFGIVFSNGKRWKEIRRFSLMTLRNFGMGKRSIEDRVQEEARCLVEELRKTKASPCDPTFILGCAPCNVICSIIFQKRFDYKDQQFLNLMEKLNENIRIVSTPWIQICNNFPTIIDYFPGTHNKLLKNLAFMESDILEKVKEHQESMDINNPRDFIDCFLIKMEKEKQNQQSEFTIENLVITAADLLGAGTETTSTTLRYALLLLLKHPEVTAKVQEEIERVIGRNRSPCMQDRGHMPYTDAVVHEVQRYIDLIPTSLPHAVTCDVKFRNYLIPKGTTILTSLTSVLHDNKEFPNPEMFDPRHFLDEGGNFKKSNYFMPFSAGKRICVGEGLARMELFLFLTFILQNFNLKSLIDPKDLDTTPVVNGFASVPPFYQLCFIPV

[3] = target: T1, CYP2C9 (Homo sapiens, UniProt P11712); experiment: Biological Test Example 7: CYP2C9 inhibition (naproxen O-demethylation); type: in vitro ADME
T1 construct: purchased Invitrogen 2859; host or cells: insect cells infected with baculovirus (microsomes)
T1 sequence (P11712 whole entry): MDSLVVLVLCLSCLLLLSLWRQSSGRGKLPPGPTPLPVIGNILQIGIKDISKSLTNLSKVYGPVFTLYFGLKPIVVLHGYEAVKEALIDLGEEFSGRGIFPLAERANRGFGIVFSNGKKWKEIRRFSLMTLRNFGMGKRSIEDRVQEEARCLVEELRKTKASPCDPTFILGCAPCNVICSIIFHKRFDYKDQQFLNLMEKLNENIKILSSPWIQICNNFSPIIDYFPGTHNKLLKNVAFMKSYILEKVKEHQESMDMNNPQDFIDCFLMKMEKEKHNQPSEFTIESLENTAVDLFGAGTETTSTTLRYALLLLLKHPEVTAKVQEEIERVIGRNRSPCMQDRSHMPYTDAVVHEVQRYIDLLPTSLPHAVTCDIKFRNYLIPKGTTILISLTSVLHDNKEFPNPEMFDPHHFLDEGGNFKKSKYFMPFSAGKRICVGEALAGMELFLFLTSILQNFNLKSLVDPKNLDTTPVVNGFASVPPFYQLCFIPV

[4] = target: CYP3A4 (Homo sapiens, UniProt P08684); experiment: Biological Test Example 6: CYP3A4 inhibition (erythromycin N-demethylation); type: in vitro ADME
CYP3A4, sequence (P08684 whole entry): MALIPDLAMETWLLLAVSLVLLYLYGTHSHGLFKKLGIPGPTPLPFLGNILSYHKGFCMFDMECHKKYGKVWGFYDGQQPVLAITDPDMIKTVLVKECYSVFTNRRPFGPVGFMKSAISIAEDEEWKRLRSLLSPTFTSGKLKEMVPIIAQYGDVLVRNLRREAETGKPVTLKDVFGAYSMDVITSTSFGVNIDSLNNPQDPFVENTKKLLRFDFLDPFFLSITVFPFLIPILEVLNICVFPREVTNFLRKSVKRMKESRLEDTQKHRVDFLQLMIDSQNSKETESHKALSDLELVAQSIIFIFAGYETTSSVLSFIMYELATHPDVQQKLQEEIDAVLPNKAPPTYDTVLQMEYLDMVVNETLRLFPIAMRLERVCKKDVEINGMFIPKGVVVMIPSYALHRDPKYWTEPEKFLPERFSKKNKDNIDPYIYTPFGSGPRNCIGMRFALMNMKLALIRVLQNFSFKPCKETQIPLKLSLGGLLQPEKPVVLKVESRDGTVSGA

[5] = target: T1, CYP2C9; experiment: Biological Test Example 9: CYP2C9 inhibition (Invitrogen kit, fluorogenic OOMR); type: in vitro ADME
[6] = target: T2, 11β-HSD1 (Homo sapiens, UniProt P28845); experiment: Biological Test Example 4: microsomal 11β-HSD1 in the presence of 50% human plasma; conditions: for Shift: IC50 in Test Example 4 divided by IC50 in Test Example 1
T2 sequence (P28845 whole entry): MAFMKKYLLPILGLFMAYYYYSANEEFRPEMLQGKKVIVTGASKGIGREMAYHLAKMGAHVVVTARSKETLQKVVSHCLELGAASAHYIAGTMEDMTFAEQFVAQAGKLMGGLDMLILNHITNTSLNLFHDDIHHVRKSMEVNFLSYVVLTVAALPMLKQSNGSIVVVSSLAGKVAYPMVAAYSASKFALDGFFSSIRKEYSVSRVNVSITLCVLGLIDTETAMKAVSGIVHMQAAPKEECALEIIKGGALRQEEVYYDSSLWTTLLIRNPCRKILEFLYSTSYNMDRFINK

[7] = target: T2, 11β-HSD1; experiment: biochemical; conditions: for inhibition at 0.1 µM: read-out: Average % inhibition at 100 nM
[8] = Biological Test Example 1 IC50 (nM)
[9] = IC50 Range, Biological Test Example 1

Biological Test Example 5 (%) [1] [%]	IC50 [2] [µM]	IC50 [3] [µM]	IC50 [4] [µM]	IC50 [5] [µM]	IC50 [6] [µM]	Shift [6]	IC50 [7, 8] [nM]	IC50 [7, 9] [nM]	inhibition at 0.1 µM [7] [%]	SMILES
2	24.2	22.2	12.7							C[C@@H](c1ccc(-c2ccc(C#N)cn2)cc1)N1CC[C@](CC(C)(C)O)(c2ccccc2)OC1=O [EXAMPLE 138, 6-(4-((S)-1-((S)-6-(2-hydroxy-2-methylpropyl)-2-oxo-6-phenyl-1,3-oxazinan-3-yl)ethyl)phenyl)nicotinonitrile]
	18.2	21.4	> 50	9.9						Cc1cc(-c2ccc([C@H](C)N3CC[C@](CC(C)(C)O)(c4ccccc4)OC3=O)cc2)cc(C)n1 [EXAMPLE 139, (S)-3-((S)-1-(4-(2,6-dimethylpyridin-4-yl)phenyl)ethyl)-6-(2-hydroxy-2-methylpropyl)-6-phenyl-1,3-oxazinan-2-one]
	> 50	38.9	> 50		0.0064	3.0	2.1	< 100	94.7	Cc1ccc(-c2ccc([C@H](C)N3CC[C@](CC(C)(C)O)(c4ccc(F)cc4)OC3=O)cc2)nn1 [EXAMPLE 155, (S)-6-(4-fluorophenyl)-6-(2-hydroxy-2-methylpropyl)-3-((S)-1-(4-(6-methylpyridazin-3-yl)phenyl)ethyl)-1,3-oxazinan-2-one]
	47.6	> 50	> 50		0.0101		1.1	< 100	96.4	C[C@@H](c1ccc(-c2ccc(C(=O)N(C)C)cn2)cc1)N1CC[C@](CC(C)(C)O)(c2ccccc2)OC1=O [EXAMPLE 156, 6-(4-((S)-1-((S)-6-(2-hydroxy-2-methylpropyl)-2-oxo-6-phenyl-1,3-oxazinan-3-yl)ethyl)phenyl)-N,N-dimethylnicotinamide]
	> 50	> 50	> 50		0.0129		2.1	< 100	95.7	C[C@@H](c1ccc(-c2ncc(C(=O)N(C)C)s2)cc1)N1CC[C@](CC(C)(C)O)(c2ccccc2)OC1=O [EXAMPLE 158, 2-(4-((S)-1-((S)-6-(2-hydroxy-2-methylpropyl)-2-oxo-6-phenyl-1,3-oxazinan-3-yl)ethyl)phenyl)-N,N-dimethylthiazole-5-carboxamide]
	1.7	2.3	4.5		0.0174	17.5	1	< 100	95	CCOc1ncc(-c2ccc([C@H](C)N3CC[C@](CC(C)(C)O)(c4ccccc4)OC3=O)cc2)cc1C [EXAMPLE 160, (S)-3-((S)-1-(4-(6-ethoxy-5-methylpyridin-3-yl)phenyl)ethyl)-6-(2-hydroxy-2-methylpropyl)-6-phenyl-1,3-oxazinan-2-one]
	10.5	36	> 50		0.0039		1.1	< 100	95.1	C[C@@H](c1ccc(-c2ccc(C(=O)NC3CC3)cn2)cc1)N1CC[C@](CC(C)(C)O)(c2ccccc2)OC1=O [EXAMPLE 161, N-cyclopropyl-6-(4-((S)-1-((S)-6-(2-hydroxy-2-methylpropyl)-2-oxo-6-phenyl-1,3-oxazinan-3-yl)ethyl)phenyl)nicotinamide]
	10.9	6.9	15.9		0.0059		1.6	< 100	90.3	C[C@@H](c1ccc(-c2ccc(C(=O)NC(C)(C)C)cn2)cc1)N1CC[C@](CC(C)(C)O)(c2ccccc2)OC1=O [EXAMPLE 163, N-tert-butyl-6-(4-((S)-1-((S)-6-(2-hydroxy-2-methylpropyl)-2-oxo-6-phenyl-1,3-oxazinan-3-yl)ethyl)phenyl)nicotinamide]
	39.5	9	20.7		0.0023	2.3	1	< 100	96.5	Cc1ccc(-c2ccc([C@H](C)N3CC[C@](CC(C)(C)C#N)(c4ccccc4)OC3=O)cc2)nn1 [EXAMPLE 166, 2,2-dimethyl-3-((R)-3-((S)-1-(4-(6-methylpyridazin-3-yl)phenyl)ethyl)-2-oxo-6-phenyl-1,3-oxazinan-6-yl)propanenitrile]
	44.4	38.1	> 50		0.0106		3.3	< 100	97.9	Cc1nnc(-c2ccc([C@H](C)N3CC[C@](CC(C)(C)O)(c4ccccc4)OC3=O)cc2)s1 [EXAMPLE 172, (S)-6-(2-Hydroxy-2-methyl-propyl)-3-{(S)-1-[4-(5-methyl-[1,3,4]thiadiazol-2-yl)-phenyl]-ethyl}-6-phenyl-[1,3]oxazinan-2-one]
